Data as given in patent US5459147A, “Substituted benzimidazolyl derivatives and pharmaceutical compositions containing these compounds” (Dr. Karl Thomae GmbH, priority 1992, dated 1995).

Each compound was assayed against T1, Angiotensin II-receptor (Rattus norvegicus, UniProt P25095) (assay: Angiotensin II-receptor bonding). Conditions: rats lung homogenate; 50 pM [125I]-angiotensin II; 60 minutes at 37° C., pH 7.40.
T1 construct: The tissue (rats lung) is homogenised in Tris-buffer; from tissue; host or cells: rat lung homogenate (washed 20,000×g pellet)
T1 sequence (P25095 1-359): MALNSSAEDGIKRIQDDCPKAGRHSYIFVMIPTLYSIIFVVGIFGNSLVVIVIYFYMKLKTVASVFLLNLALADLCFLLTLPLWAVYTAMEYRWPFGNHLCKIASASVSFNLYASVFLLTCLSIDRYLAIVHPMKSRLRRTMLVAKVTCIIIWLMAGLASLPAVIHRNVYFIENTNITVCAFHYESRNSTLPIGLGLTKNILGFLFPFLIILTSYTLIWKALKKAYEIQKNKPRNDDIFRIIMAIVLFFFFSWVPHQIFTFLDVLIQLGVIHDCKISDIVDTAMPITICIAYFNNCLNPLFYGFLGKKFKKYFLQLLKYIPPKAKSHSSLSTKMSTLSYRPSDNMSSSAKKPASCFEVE
Format: binding
Description: Description of method: Angiotensin II-receptor bonding
The tissue (rats lung) is homogenised in Tris-buffer (50 mMol Tris, 150 mMol NaCl, 5 mMol EDTA, pH 7.40) and centrifuged twice for 20 minutes at 20,000×g. The finished pellets are resuspended in incubating buffer (50 mMol Tris, 5 mMol MgCl2, 0.2% BSA, pH 7.40) 1:75, based on the moist weight of the tissue. Each 0.1 ml of homogenate is incubated for 60 minutes at 37° C. with 50 pM [^125 I]-angiotensin II (NEN, Dreieich, FRG) with increasing concentrations of the test substance in a total volume of 0.25 ml. Incubation is ended by rapid filtration through glass fiber filter mats. The filters are each washed with 4 ml of ice cold buffer (25 mMol Tris, 2.5 mMol MgCl2, 0.1% BSA, pH 7.40). The bound radioactivity is measured using a gamma-counter. The corresponding IC50 value is obtained from the dose-activity curve.

IC50	Compound
0.12 µM	CCc1nc2c(C)cc(C)nc2n1Cc1ccc2c(c1)nc(-c1ccccc1)n2CC(=O)O [Substance A, 1-hydroxycarbonylmethyl-2-phenyl-5-[(2-ethyl-4,6-dimethyl-imidazo[4,5-b]pyridin-1-yl)-methyl]-benzimidazole-trihydrate]
0.0023 µM	CCCc1nc2c(C)cc(-c3nc4ccccc4n3C)cc2n1Cc1ccc2c(c1)nc(-c1ccccc1)n2Cc1nnn[nH]1 [Substance C, 1-[(1H-tetrazol-5-yl)-methyl]-2-phenyl-5-[(2-n-propyl-4-methyl-6-(1-methyl-benzimidazol-2-yl)-benzimidazol-1-yl)-methyl]-benzimidazole]
0.023 µM	CCCc1nc2c(C)cc(-c3nc4ccccc4n3C)cc2n1Cc1ccc2nc(-c3ccccc3)n(CC(=O)O)c2c1 [Substance B, 1-hydroxycarbonylmethyl-2-phenyl-6-[(2-n-propyl-4-methyl-6-(1-methyl-benzimidazol-2-yl)-benzimidazol-1-yl)-methyl]-benzimidazole]
